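Tested at 5 concentrations; 48 h exposure; 96-well plates; endpoints linearly interpolated, else capped at highest concentration. The concentration for 50% growth inhibition is given as GI50. The concentration for full growth arrest is given as TGI.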
Key:
Assay in all cases: NCI tumour cell line growth inhibition, 48 h
TK-10 renal = test system: TK-10 renal
KM12 colon = test system: KM12 colon
OVCAR-5 ovarian = test system: OVCAR-5 ovarian
SK-MEL-5 melanoma = test system: SK-MEL-5 melanoma
HOP-92 NSCLC = test system: HOP-92 NSCLC
NCI-H23 lung = test system: NCI-H23 lung
MOLT-4 leukemia = test system: MOLT-4 leukemia
A549 NSCLC = test system: A549 NSCLC
SK-MEL-28 melanoma = test system: SK-MEL-28 melanoma
T-47D breast = test system: T-47D breast
OVCAR-3 ovarian = test system: OVCAR-3 ovarian
NCI/ADR-RES ovarian = test system: NCI/ADR-RES ovarian
HOP-62 NSCLC = test system: HOP-62 NSCLC
OVCAR-8 ovarian = test system: OVCAR-8 ovarian
MALME-3M melanoma = test system: MALME-3M melanoma
ACHN renal = test system: ACHN renal
NCI-H522 lung = test system: NCI-H522 lung
MDA-MB-231 breast = test system: MDA-MB-231 breast
COLO 205 colon = test system: COLO 205 colon
OVCAR-4 ovarian = test system: OVCAR-4 ovarian
HCC-2998 colon = test system: HCC-2998 colon
HCT-15 colon = test system: HCT-15 colon
UACC-62 melanoma = test system: UACC-62 melanoma
SW-620 colon = test system: SW-620 colon
U251 CNS = test system: U251 CNS
UO-31 renal = test system: UO-31 renal
LOX IMVI melanoma = test system: LOX IMVI melanoma
A498 renal = test system: A498 renal
MCF7 breast = test system: MCF7 breast
CAKI-1 renal = test system: CAKI-1 renal
BT-549 breast = test system: BT-549 breast
RPMI-8226 leukemia = test system: RPMI-8226 leukemia
SNB-19 CNS = test system: SNB-19 CNS
HL-60(TB) leukemia = test system: HL-60(TB) leukemia
HCT-116 colon = test system: HCT-116 colon
EKVX NSCLC = test system: EKVX NSCLC
RXF 393 renal = test system: RXF 393 renal
M14 melanoma = test system: M14 melanoma
IGROV1 ovarian = test system: IGROV1 ovarian
PC-3 prostate = test system: PC-3 prostate
UACC-257 melanoma = test system: UACC-257 melanoma
SK-MEL-2 melanoma = test system: SK-MEL-2 melanoma
NCI-H226 lung = test system: NCI-H226 lung
SNB-75 CNS = test system: SNB-75 CNS
HS 578T breast = test system: HS 578T breast
SF-295 CNS = test system: SF-295 CNS
MDA-MB-435 = test system: MDA-MB-435
CCRF-CEM leukemia = test system: CCRF-CEM leukemia
SR leukemia = test system: SR leukemia
HT29 colon = test system: HT29 colon
K-562 leukemia = test system: K-562 leukemia
SF-268 CNS = test system: SF-268 CNS
NCI-H460 lung = test system: NCI-H460 lung
SF-539 CNS = test system: SF-539 CNS
DU-145 prostate = test system: DU-145 prostate
786-0 renal = test system: 786-0 renal
SN12C renal = test system: SN12C renal
SK-OV-3 ovarian = test system: SK-OV-3 ovarian

COc1cccc(/C=C2\COc3ccc(O)c(O)c3C2=O)c1OC
GI50 (TK-10 renal): 2.36 µM
TGI (TK-10 renal): 8.19 µM
GI50 (KM12 colon): 1.67 µM
TGI (KM12 colon): 3.92 µM
GI50 (OVCAR-5 ovarian): 3.51 µM
TGI (OVCAR-5 ovarian): 13.6 µM
GI50 (SK-MEL-5 melanoma): 2.05 µM
TGI (SK-MEL-5 melanoma): 4.3 µM
GI50 (HOP-92 NSCLC): 2.69 µM
TGI (HOP-92 NSCLC): 8.81 µM
GI50 (NCI-H23 lung): 2.9 µM
TGI (NCI-H23 lung): 11.1 µM
GI50 (MOLT-4 leukemia): 1.83 µM
TGI (MOLT-4 leukemia): > 100 µM
GI50 (A549 NSCLC): 2.58 µM
TGI (A549 NSCLC): 14.2 µM
GI50 (SK-MEL-28 melanoma): 3.53 µM
TGI (SK-MEL-28 melanoma): 12.9 µM
GI50 (T-47D breast): 1.66 µM
TGI (T-47D breast): 22.1 µM
GI50 (OVCAR-3 ovarian): 1.16 µM
TGI (OVCAR-3 ovarian): 2.85 µM
GI50 (NCI/ADR-RES ovarian): 3.48 µM
TGI (NCI/ADR-RES ovarian): 97.2 µM
GI50 (HOP-62 NSCLC): 8.79 µM
TGI (HOP-62 NSCLC): 22.8 µM
GI50 (OVCAR-8 ovarian): 2.76 µM
TGI (OVCAR-8 ovarian): 20.9 µM
GI50 (MALME-3M melanoma): 2.09 µM
TGI (MALME-3M melanoma): 6.11 µM
GI50 (ACHN renal): 3.27 µM
TGI (ACHN renal): 12.2 µM
GI50 (NCI-H522 lung): 0.19 µM
TGI (NCI-H522 lung): 0.473 µM
GI50 (MDA-MB-231 breast): 3.32 µM
TGI (MDA-MB-231 breast): 13.4 µM
GI50 (COLO 205 colon): 3.01 µM
TGI (COLO 205 colon): 8.38 µM
GI50 (OVCAR-4 ovarian): 2.17 µM
TGI (OVCAR-4 ovarian): 8.47 µM
GI50 (HCC-2998 colon): 1.99 µM
TGI (HCC-2998 colon): 3.96 µM
GI50 (HCT-15 colon): 1.6 µM
TGI (HCT-15 colon): 10.5 µM
GI50 (UACC-62 melanoma): 1.8 µM
TGI (UACC-62 melanoma): 4.53 µM
GI50 (SW-620 colon): 2.1 µM
TGI (SW-620 colon): 5.44 µM
GI50 (U251 CNS): 2 µM
TGI (U251 CNS): 10.5 µM
GI50 (UO-31 renal): 1.1 µM
TGI (UO-31 renal): 2.4 µM
GI50 (LOX IMVI melanoma): 1.53 µM
TGI (LOX IMVI melanoma): 3.08 µM
GI50 (A498 renal): 4.01 µM
TGI (A498 renal): 13.9 µM
GI50 (MCF7 breast): 1.76 µM
TGI (MCF7 breast): 14.9 µM
GI50 (CAKI-1 renal): 1.71 µM
TGI (CAKI-1 renal): 4.69 µM
GI50 (BT-549 breast): 1.89 µM
TGI (BT-549 breast): 8.7 µM
GI50 (RPMI-8226 leukemia): 0.547 µM
TGI (RPMI-8226 leukemia): 8.7 µM
GI50 (SNB-19 CNS): 3.07 µM
TGI (SNB-19 CNS): 12 µM
GI50 (HL-60(TB) leukemia): 1.04 µM
TGI (HL-60(TB) leukemia): > 100 µM
GI50 (HCT-116 colon): 1.9 µM
TGI (HCT-116 colon): 4.89 µM
GI50 (EKVX NSCLC): 4.29 µM
TGI (EKVX NSCLC): 16.9 µM
GI50 (RXF 393 renal): 1.76 µM
TGI (RXF 393 renal): 3.42 µM
GI50 (M14 melanoma): 2.56 µM
TGI (M14 melanoma): 9.3 µM
GI50 (IGROV1 ovarian): 2.62 µM
TGI (IGROV1 ovarian): 10.9 µM
GI50 (PC-3 prostate): 2.22 µM
TGI (PC-3 prostate): 11 µM
GI50 (UACC-257 melanoma): 2.37 µM
TGI (UACC-257 melanoma): 7.18 µM
GI50 (SK-MEL-2 melanoma): 2.35 µM
TGI (SK-MEL-2 melanoma): 6.34 µM
GI50 (NCI-H226 lung): 10.7 µM
TGI (NCI-H226 lung): 51.2 µM
GI50 (SNB-75 CNS): 3.61 µM
TGI (SNB-75 CNS): 20.9 µM
GI50 (HS 578T breast): 3.99 µM
TGI (HS 578T breast): 31.5 µM
GI50 (SF-295 CNS): 6.07 µM
TGI (SF-295 CNS): 19.1 µM
GI50 (MDA-MB-435): 2.3 µM
TGI (MDA-MB-435): 7 µM
GI50 (CCRF-CEM leukemia): 0.61 µM
TGI (CCRF-CEM leukemia): > 100 µM
GI50 (SR leukemia): 1.51 µM
TGI (SR leukemia): > 100 µM
GI50 (HT29 colon): 3.33 µM
TGI (HT29 colon): 10.1 µM
GI50 (K-562 leukemia): 1.47 µM
TGI (K-562 leukemia): > 100 µM
GI50 (SF-268 CNS): 2.12 µM
TGI (SF-268 CNS): 10.3 µM
GI50 (NCI-H460 lung): 2.34 µM
TGI (NCI-H460 lung): 7.12 µM
GI50 (SF-539 CNS): 2.07 µM
TGI (SF-539 CNS): 4.77 µM
GI50 (DU-145 prostate): 2.61 µM
TGI (DU-145 prostate): 10.4 µM
GI50 (786-0 renal): 1.89 µM
TGI (786-0 renal): 5.62 µM
GI50 (SN12C renal): 2.77 µM
TGI (SN12C renal): 12.9 µM
GI50 (SK-OV-3 ovarian): 7.18 µM
TGI (SK-OV-3 ovarian): 21 µM
